“And” between values parts separate entries of the source, which are not always exact repeats. Equal entries are not always repeated.
Legend:
GLUT1 = molecular target: T1, GLUT1 (Homo sapiens, UniProt P11166); assay: [3H]3-O-methylglucose uptake by HIBCPP cells; format: cell-based; conditions: 10 s, glucose-free IB
T1 sequence (P11166 1-492): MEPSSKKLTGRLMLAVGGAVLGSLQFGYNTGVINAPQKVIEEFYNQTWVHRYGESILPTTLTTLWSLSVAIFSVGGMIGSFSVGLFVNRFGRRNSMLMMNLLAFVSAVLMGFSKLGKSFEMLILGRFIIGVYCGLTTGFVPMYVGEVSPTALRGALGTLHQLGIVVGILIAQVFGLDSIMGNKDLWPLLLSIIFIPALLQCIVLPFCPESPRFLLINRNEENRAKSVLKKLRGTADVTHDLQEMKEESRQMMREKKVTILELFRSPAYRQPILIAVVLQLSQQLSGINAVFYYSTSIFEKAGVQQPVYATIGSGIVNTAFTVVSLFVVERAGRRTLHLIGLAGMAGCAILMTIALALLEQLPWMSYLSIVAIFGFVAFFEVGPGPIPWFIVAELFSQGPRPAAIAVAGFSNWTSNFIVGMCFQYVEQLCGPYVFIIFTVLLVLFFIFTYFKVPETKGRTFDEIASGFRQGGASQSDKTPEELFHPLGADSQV

LAT1 = LAT1 (Homo sapiens, UniProt Q01650); assay: Gabapentin uptake by HIBCPP cells; format: cell-based
Chain of LAT1 (Q01650 whole entry): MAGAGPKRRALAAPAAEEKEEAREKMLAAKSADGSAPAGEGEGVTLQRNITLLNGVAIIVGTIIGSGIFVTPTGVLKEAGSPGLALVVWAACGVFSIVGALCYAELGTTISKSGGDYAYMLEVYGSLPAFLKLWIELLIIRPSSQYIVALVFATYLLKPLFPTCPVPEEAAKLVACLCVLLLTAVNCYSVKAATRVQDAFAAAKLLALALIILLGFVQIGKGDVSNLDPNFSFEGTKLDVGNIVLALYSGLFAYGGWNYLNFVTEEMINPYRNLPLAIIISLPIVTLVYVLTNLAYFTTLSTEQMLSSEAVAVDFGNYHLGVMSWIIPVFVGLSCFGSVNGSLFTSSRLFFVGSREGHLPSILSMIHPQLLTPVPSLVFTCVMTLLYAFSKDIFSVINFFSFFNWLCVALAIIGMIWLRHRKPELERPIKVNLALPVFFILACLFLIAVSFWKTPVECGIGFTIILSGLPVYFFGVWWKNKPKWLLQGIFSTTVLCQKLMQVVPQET
Chain of LAT1 (P08195 102-630 partner): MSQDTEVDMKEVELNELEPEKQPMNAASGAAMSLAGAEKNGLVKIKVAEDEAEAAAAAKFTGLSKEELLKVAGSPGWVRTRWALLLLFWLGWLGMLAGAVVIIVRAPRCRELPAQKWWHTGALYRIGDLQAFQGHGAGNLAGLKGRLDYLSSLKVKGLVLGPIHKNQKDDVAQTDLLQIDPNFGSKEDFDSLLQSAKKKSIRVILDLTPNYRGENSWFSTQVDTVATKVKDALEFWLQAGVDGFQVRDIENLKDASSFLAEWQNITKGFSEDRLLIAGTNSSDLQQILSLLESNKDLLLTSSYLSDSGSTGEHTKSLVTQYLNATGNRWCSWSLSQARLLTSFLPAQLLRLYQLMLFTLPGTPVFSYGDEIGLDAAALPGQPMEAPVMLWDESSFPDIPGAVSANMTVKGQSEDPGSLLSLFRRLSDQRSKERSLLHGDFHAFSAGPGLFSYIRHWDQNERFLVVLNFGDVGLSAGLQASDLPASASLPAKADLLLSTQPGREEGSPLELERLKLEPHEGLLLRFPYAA

CAT1 = CAT1 (Homo sapiens, UniProt P30825); assay: [3H]L-arginine uptake by HIBCPP cells; format: cell-based; conditions: for Relative uptake (% of control): 1 min
Chain of CAT1 (P30825 whole entry): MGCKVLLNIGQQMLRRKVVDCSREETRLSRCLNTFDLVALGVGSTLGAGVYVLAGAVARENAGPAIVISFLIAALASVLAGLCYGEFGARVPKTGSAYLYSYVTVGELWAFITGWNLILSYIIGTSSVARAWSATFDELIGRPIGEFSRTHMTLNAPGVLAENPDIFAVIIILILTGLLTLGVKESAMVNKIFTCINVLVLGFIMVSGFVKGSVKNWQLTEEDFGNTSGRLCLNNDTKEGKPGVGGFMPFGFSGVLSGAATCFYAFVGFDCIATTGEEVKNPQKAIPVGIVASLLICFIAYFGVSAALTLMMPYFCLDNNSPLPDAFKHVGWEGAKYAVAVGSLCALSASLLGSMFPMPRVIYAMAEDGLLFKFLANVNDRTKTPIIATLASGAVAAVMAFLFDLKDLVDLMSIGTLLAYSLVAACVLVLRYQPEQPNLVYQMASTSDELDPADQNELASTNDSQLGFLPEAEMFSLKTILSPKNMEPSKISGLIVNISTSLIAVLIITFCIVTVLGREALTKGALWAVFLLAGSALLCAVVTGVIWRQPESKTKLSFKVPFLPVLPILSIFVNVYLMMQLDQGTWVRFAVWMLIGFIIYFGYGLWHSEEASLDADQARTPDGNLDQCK

HIBCPP cell layer = assay: Transcellular transport; conditions: for Papp,correct in the BL-to-AP direction relative to the AP-to-BL direction: BL-to-AP greater than AP-to-BL; for Papp,correct AP-to-BL / Papp,correct BL-to-AP: corrected by lucifer yellow
Transcellular transport = conditions: human
SLC35F2 = molecular target: T2, SLC35F2 (Homo sapiens, UniProt Q8IXU6); assay: YM155 uptake by HIBCPP cells; format: cell-based; conditions: 30 s
T2 sequence (Q8IXU6 1-374): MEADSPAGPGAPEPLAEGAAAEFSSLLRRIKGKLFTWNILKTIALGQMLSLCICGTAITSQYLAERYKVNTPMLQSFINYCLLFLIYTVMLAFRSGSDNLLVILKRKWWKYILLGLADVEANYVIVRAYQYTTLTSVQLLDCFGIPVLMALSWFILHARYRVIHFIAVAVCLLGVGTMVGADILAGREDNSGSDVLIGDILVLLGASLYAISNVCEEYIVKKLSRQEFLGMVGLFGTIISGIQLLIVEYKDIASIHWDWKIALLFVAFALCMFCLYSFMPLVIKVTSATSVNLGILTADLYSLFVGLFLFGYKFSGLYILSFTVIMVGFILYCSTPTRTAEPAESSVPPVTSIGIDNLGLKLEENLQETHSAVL

GLAST = GLAST (Homo sapiens, UniProt P43003); assay: [3H]L-glutamate uptake by HIBCPP cells; format: cell-based; conditions: 1 min
Chain of GLAST (P43003 whole entry): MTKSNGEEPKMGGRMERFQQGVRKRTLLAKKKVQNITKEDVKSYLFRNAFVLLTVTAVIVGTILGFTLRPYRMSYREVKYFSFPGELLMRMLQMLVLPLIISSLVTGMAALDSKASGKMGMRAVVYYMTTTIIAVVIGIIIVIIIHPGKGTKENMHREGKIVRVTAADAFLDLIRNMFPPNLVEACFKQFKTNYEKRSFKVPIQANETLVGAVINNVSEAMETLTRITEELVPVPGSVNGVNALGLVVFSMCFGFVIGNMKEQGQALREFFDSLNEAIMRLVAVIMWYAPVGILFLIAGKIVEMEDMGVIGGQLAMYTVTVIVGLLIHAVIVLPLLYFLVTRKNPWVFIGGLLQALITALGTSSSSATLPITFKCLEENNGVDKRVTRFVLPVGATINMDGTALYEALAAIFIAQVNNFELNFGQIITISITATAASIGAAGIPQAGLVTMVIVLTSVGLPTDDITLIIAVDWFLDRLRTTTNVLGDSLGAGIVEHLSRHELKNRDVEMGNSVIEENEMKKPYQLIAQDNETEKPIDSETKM

PMAT = assay: MPP+ uptake by HIBCPP cells; format: cell-based, human; conditions: 5 min
OATP1B3 = assay: Telmisartan uptake by HIBCPP cells; format: cell-based, human; conditions: telmisartan uptake at 4°C, 30 s
MCT1 = molecular target: T3, MCT1 (Homo sapiens, UniProt P53985); assay: [14C]L-lactate uptake by HIBCPP cells; format: cell-based; conditions: IB pH 6.0
T3 sequence (P53985 1-500): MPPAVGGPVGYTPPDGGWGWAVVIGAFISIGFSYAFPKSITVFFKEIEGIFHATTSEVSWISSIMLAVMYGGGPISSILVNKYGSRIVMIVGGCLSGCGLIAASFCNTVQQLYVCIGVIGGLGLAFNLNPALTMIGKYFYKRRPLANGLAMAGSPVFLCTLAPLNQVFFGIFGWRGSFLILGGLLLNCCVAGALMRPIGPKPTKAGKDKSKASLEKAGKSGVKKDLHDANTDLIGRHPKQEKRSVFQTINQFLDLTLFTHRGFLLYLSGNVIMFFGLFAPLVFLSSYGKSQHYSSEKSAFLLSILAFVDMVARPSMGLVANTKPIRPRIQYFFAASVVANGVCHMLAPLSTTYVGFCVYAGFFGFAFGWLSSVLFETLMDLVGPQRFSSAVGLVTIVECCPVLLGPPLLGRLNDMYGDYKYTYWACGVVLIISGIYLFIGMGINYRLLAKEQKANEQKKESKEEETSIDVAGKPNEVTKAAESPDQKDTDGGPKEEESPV

[1] = Papp,correct (AP-to-BL)/Papp,correct (BL-to-AP)

In the case of OC[C@H]1OC(O)[C@H](O)[C@@H](O)[C@@H]1O (some centres unmarked) [Glucose], the “Relative uptake (% of control)” value (GLUT1; [3H]3-O-methylglucose uptake + 5.6 mM glucose) is reported as 54.7 ± 1.4 % of control.
For Nc1cc(COc2c(Cl)cc(C[C@H](N)C(=O)O)cc2Cl)c2oc(-c3ccccc3)nc2c1 [JPH203], the “Relative uptake (% of control)” value (LAT1; gabapentin uptake + 10 μM JPH203, 1 min) was 13.1 ± 0.2 % of control.
With NC(N)=NCCC[C@H](N)C(=O)O [[^3H]L-Arginine, arginine L-[2,3,4-^3H]] the “Relative uptake (% of control)” value (CAT1; [3H]L-arginine uptake at 4°C) was 6.80 ± 0.69 % of control, the “Decrease of uptake at low temperatures” value (CAT1; [3H]L-arginine uptake, low temperature (4°C)) was > 90% and the “Reduction of uptake into HIBCPP cells” value (CAT1; [3H]L-arginine, at 4 °C or in the presence of respective inhibitor) was “more than 80%”. For the same molecule, the Efflux ratio (HIBCPP cell layer; [1]) was “exceed 1”.
With COCCn1c2c([n+](Cc3cnccn3)c1C)C(=O)c1ccccc1C2=O [YM155] the Papp A→B (Transcellular transport) was 3.36 ± 0.34 ×10⁻⁶ cm/s, the Papp A→B at 2 h (Transcellular transport) was 6.66 ± 0.34 ×10⁻⁶ cm/s and the Papp B→A (Transcellular transport) was 1.32 ± 0.37 ×10⁻⁶ cm/s. The Papp B→A at 2 h (Transcellular transport) was 4.59 ± 0.37 ×10⁻⁶ cm/s and the “Relative uptake (% of control)” value (SLC35F2; YM155 uptake at 4°C) was 27.8 ± 3.0 % of control.
With “glutamic acid L-[2,3,4-^3H] [[^3H]L-Glutamate]” the “Relative uptake (% of control)” value (GLAST; [3H]L-glutamate uptake at 4°C) was 17.7 ± 3.0 % of control, the “Relative uptake (% of control)” value (GLAST; [3H]L-glutamate uptake at 4°C, listed as [^3H]L-glutamate) was 17.7 % of control and the “Papp,correct in the BL-to-AP direction relative to the AP-to-BL direction” value (HIBCPP cell layer) was “approximately 2 times”. The Efflux ratio (HIBCPP cell layer; [1]) was 0.45 and the Efflux ratio (HIBCPP cell layer; Papp,correct (AP-to-BL)/Papp,correct (BL-to-AP), listed as [^3H]L-glutamate) was “below 1”.
In the case of NC(N)=Nc1nc(CSCCC(N)=NS(N)(=O)=O)cs1 [Famotidine], the “Relative uptake (% of control)” value (SLC35F2; YM155 uptake + 1 mM famotidine) is reported as 40.0 ± 8.5 % of control.
With N[C@@H](CC(=O)O)C(=O)O [L-Aspartic acid] the “Relative uptake (% of control)” value (GLAST; [3H]L-glutamate uptake + 1 mM L-aspartic acid) was 65.3 ± 4.9 % of control and the “Relative uptake (% of control)” value (GLAST; [3H]L-glutamate uptake + 1 mM L-aspartic acid, listed as L-aspartic acid) was 65.3 % of control.
With NCCc1c[nH]c2ccc(O)cc12 [Serotonin] the “Relative uptake (% of control)” value (PMAT; MPP+ uptake + 1 mM serotonin) was 48.6 ± 5.1 % of control.
In the case of CCCc1nc2c(C)cc(-c3nc4ccccc4n3C)cc2n1Cc1ccc(-c2ccccc2C(=O)O)cc1 [Telmisartan], the Papp A→B at 2 h (Transcellular transport) is reported as 0.9 ± 0.23 ×10⁻⁶ cm/s, the Papp B→A (Transcellular transport) is reported as 10.5 ± 3.3 ×10⁻⁶ cm/s and the Papp B→A at 2 h (Transcellular transport) is reported as 13.8 ± 3.3 ×10⁻⁶ cm/s. The Efflux ratio (Transcellular transport; Efflux ratio, Papp,correct (AP-to-BL)/Papp,correct (BL-to-AP)) was < 1 and the “Relative uptake (% of control)” value (OATP1B3) was 22.9 ± 1.4 % of control.
With Cc1[nH]nc(C(F)(F)F)c1Cc1sc2c(c1C(=O)N1C[C@](C)(O)CO1)c(=O)n(C)c(=O)n2C(C)C [AZD3965] the “Relative uptake (% of control)” value (MCT1; [14C]L-lactate uptake + 20 nM AZD3965, 30 s) was 28.0 % of control and 28.0 ± 1.6 % of control.
With C[n+]1ccc(-c2ccccc2)cc1 [MPP^+, 1-methyl-4-phenylpyridinium] the Efflux ratio (HIBCPP cell layer; [1]) was 1.03 and the “Relative uptake (% of control)” value (PMAT; MPP+ uptake at 4°C) was 22.2 ± 5.5 % of control.
For NCCC[C@H](N)C(=O)O [L-Ornithine], the “Relative uptake (% of control)” value (CAT1; [3H]L-arginine uptake + 1 mM L-ornithine) was 18.7 ± 0.2 % of control.
With [3H]CO[C@H]1[C@H](O)[C@@H](CO)OC(O)[C@@H]1O (stereo partly drawn) [[^3H]3-O-Methylglucose, methyl-D-glucose 3-O-[methyl-^3H]] the “Relative uptake (% of control)” value (GLUT1; [3H]3-O-methylglucose uptake at 4°C) was 14.0 ± 1.3 % of control and the Efflux ratio (HIBCPP cell layer; [1]) was 1.05.
In the case of NCC1(CC(=O)O)CCCCC1 [Gabapentin], the “Relative uptake (% of control)” value (LAT1; gabapentin uptake at 4°C, 1 min) is reported as 9.24 ± 0.54 % of control, the “Decrease of uptake at low temperatures” value (LAT1; gabapentin uptake, low temperature (4°C)) is reported as > 90% and the “Reduction of uptake into HIBCPP cells” value (LAT1; gabapentin, at 4 °C or in the presence of respective inhibitor) is reported as “more than 80%”. It also gave a Papp A→B (Transcellular transport) of 10.8 ± 0.6 ×10⁻⁶ cm/s, a Papp A→B at 2 h (Transcellular transport) of 14.1 ± 0.6 ×10⁻⁶ cm/s and a Papp B→A (Transcellular transport) of 0.213 ± 0.078 ×10⁻⁶ cm/s. The Papp B→A at 2 h (Transcellular transport) was 3 ± 0.08 ×10⁻⁶ cm/s and the Efflux ratio (HIBCPP cell layer; [1]) was 50.7.
O=C1CN(/N=C/c2ccc(-c3ccc([N+](=O)[O-])cc3)o2)C(O)=N1 [Dantrolene, Dantrolene sodium] showed a Papp A→B (Transcellular transport) of 5.98 ± 0.77 ×10⁻⁶ cm/s, a Papp A→B at 2 h (Transcellular transport) of 9.28 ± 0.77 ×10⁻⁶ cm/s and a Papp B→A (Transcellular transport) of 11.5 ± 0.9 ×10⁻⁶ cm/s. For the same molecule, the Papp B→A at 2 h (Transcellular transport) was 14.8 ± 0.9 ×10⁻⁶ cm/s, the “Papp,correct in the BL-to-AP direction relative to the AP-to-BL direction” value (HIBCPP cell layer) was 2 times and the Efflux ratio (HIBCPP cell layer; [1]) was 0.52.
With [14CH3][14CH](O)[14C](=O)[O-].[Na+] [[^14C]L-Lactate, lactic acid L-[^14C(U)] Na salt] the “Relative uptake (% of control)” value (MCT1; [14C]L-lactate uptake at 4°C, 30 s) was 17.7 % of control and 17.7 ± 0.4 % of control, the “Papp AP-to-BL” value (HIBCPP cell layer; AP side pH 6.0 BL side pH 7.4) was 30.6 ± 2.0 × 10^–6 cm/sec and the “Papp BL-to-AP” value (HIBCPP cell layer; AP side pH 6.0 BL side pH 7.4) was 4.71 ± 0.14 × 10^–6 cm/sec. For the same molecule, the Efflux ratio (HIBCPP cell layer; AP side pH 6.0 BL side pH 7.4, Papp,correct (AP-to-BL)/(BL-to-AP)) was 19.0, the “Papp,correct AP-to-BL” value (HIBCPP cell layer; AP side pH 6.0 BL side pH 7.4) was 27.3 ± 2.0 × 10^–6 cm/sec and the “Papp,correct BL-to-AP” value (HIBCPP cell layer; AP side pH 6.0 BL side pH 7.4) was 1.44 ± 0.14 × 10^–6 cm/sec. For the same molecule, the “Papp AP-to-BL” value (HIBCPP cell layer; AP side pH 7.4 BL side pH 6.0) was 3.05 ± 0.09 × 10^–6 cm/sec, the “Papp BL-to-AP” value (HIBCPP cell layer; AP side pH 7.4 BL side pH 6.0) was 11.5 ± 0.1 × 10^–6 cm/sec and the “Papp,correct BL-to-AP” value (HIBCPP cell layer; AP side pH 7.4 BL side pH 6.0) was 8.20 ± 0.11 × 10^–6 cm/sec. The “Papp AP-to-BL” value (HIBCPP cell layer; AP side pH 7.4 BL side pH 7.4) was 9.56 ± 0.20 × 10^–6 cm/sec, the “Papp BL-to-AP” value (HIBCPP cell layer; AP side pH 7.4 BL side pH 7.4) was 8.84 ± 0.36 × 10^–6 cm/sec and the Efflux ratio (HIBCPP cell layer; AP side pH 7.4 BL side pH 7.4, Papp,correct (AP-to-BL)/(BL-to-AP)) was 1.12. The “Papp,correct AP-to-BL” value (HIBCPP cell layer; AP side pH 7.4 BL side pH 7.4) was 6.26 ± 0.20 × 10^–6 cm/sec and the “Papp,correct BL-to-AP” value (HIBCPP cell layer; AP side pH 7.4 BL side pH 7.4) was 5.57 ± 0.36 × 10^–6 cm/sec.

Reference: PMC12913247 (Pharmaceutical Research, 2025)
